Assays:
Assay type in all cases: in vivo
[1] = test system: Setaria faberi (SETFA); experiment: Example B post-emergence herbicidal activity; conditions: 312 h, rate 250 g/ha, evaluated after 13 days, read-out: Post-emergence activity SETFA (100=total damage to plant; 0=no damage to plant)
Outline: (§1)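 Plants were sprayed 1 day after sowing (pre-emergence) or after 8 days (post-emergence) with active ingredient in acetone/water 50:50 plus 0.5% Tween 20. They were grown in a glasshouse at 24/16 °C, 14 h light and 65% humidity. Damage was scored visually 0–100 after 13 days.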

[2] = test system: Echinochloa crus-galli (ECHCG); experiment: Example B post-emergence herbicidal activity; conditions: 312 h, rate 250 g/ha, evaluated after 13 days, read-out: Post-emergence activity ECHCG (100=total damage to plant; 0=no damage to plant)
Outline: as §1

[3] = test system: Avena fatua (AVEFA); experiment: Example B post-emergence herbicidal activity; conditions: 312 h, rate 250 g/ha, evaluated after 13 days, read-out: Post-emergence activity AVEFA (100=total damage to plant; 0=no damage to plant)
Outline: as §1

[4] = test system: Amaranthus retoflexus (AMARE); experiment: Example B post-emergence herbicidal activity; conditions: Amaranthus retroflexus, 312 h, rate 250 g/ha, evaluated after 13 days, read-out: Post-emergence activity AMARE (100=total damage to plant; 0=no damage to plant)
Outline: as §1

[5] = test system: Alopecurus myosuroides (ALOMY); experiment: Example B post-emergence herbicidal activity; conditions: 312 h, rate 250 g/ha, evaluated after 13 days, read-out: Post-emergence activity ALOMY (100=total damage to plant; 0=no damage to plant)
Outline: as §1

[6] = test system: Setaria faberi (SETFA); experiment: Example B pre-emergence herbicidal activity; conditions: 312 h, rate 250 g/ha, evaluated after 13 days, read-out: Pre-Emergence Activity SETFA (100=total damage to plant; 0=no damage to plant)
Outline: as §1

[7] = test system: Echinochloa crus-galli (ECHCG); experiment: Example B pre-emergence herbicidal activity; conditions: 312 h, rate 250 g/ha, evaluated after 13 days, read-out: Pre-Emergence Activity ECHCG (100=total damage to plant; 0=no damage to plant)
Outline: as §1

[8] = test system: Avena fatua (AVEFA); experiment: Example B pre-emergence herbicidal activity; conditions: 312 h, rate 250 g/ha, evaluated after 13 days, read-out: Pre-Emergence Activity AVEFA (100=total damage to plant; 0=no damage to plant)
Outline: as §1

[9] = test system: Amaranthus retoflexus (AMARE); experiment: Example B pre-emergence herbicidal activity; conditions: Amaranthus retroflexus, 312 h, rate 250 g/ha, evaluated after 13 days, read-out: Pre-Emergence Activity AMARE (100=total damage to plant; 0=no damage to plant)
Outline: as §1

[10] = test system: Alopecurus myosuroides (ALOMY); experiment: Example B pre-emergence herbicidal activity; conditions: 312 h, rate 250 g/ha, evaluated after 13 days, read-out: Pre-Emergence Activity ALOMY (100=total damage to plant; 0=no damage to plant)
Outline: as §1

SMILES | pest or weed control at 250 g/ha [1] [%] | pest or weed control at 250 g/ha [2] [%] | pest or weed control at 250 g/ha [3] [%] | pest or weed control at 250 g/ha [4] [%] | pest or weed control at 250 g/ha [5] [%] | pest or weed control at 250 g/ha [6] [%] | pest or weed control at 250 g/ha [7] [%] | pest or weed control at 250 g/ha [8] [%] | pest or weed control at 250 g/ha [9] [%] | pest or weed control at 250 g/ha [10] [%]
Cc1sc(-c2ccccc2)nc1C1C(=O)[C@@H]2CC[C@@H](C2)C1=O (some centres unmarked) [Compound T56] | 70 | 60 | 0 | 0 | 0 | 0 | 40 | 0 | 0 | 0
Cc1sc(-c2ccc(F)cc2F)nc1C1C(=O)[C@@H]2CC[C@@H](C2)C1=O (some centres unmarked) [Compound T70] | 100 | 100 | 50 | 40 | 90 | 100 | 60 | 30 | 100 | 70
Cc1sc(-c2ccc(Cl)c(Cl)c2)nc1C1C(=O)[C@@H]2CC[C@@H](C2)C1=O (some centres unmarked) [Compound T9] | 100 | 70 | 0 | 0 | 60 | 50 | 50 | 0 | 0 | 30
CCc1sc(-c2ccccc2Cl)nc1C1C(=O)[C@@H]2CC[C@@H](C2)C1=O (some centres unmarked) [Compound T106] | 70 | 30 | 0 | 0 | 10 | 20 | 10 | 0 | 0 | 0
CCc1sc(-c2ccc(Cl)c(F)c2)nc1C1C(=O)[C@@H]2CC[C@@H](C2)C1=O (some centres unmarked) [Compound T27] | 100 | 100 | 100 | 0 | 100 | 100 | 100 | 90 | 0 | 90
Cc1cc(Br)ccc1-c1nc(C2C(=O)[C@@H]3CC[C@@H](C3)C2=O)c(C)s1 (some centres unmarked) [Compound T37] | 100 | 100 | 90 | 0 | 100 | 90 | 60 | 30 | 0 | 30
Cc1sc(-c2ccc(Br)cn2)nc1C1=C(OC(=O)C(C)(C)C)[C@@H]2CC[C@@H](C2)C1=O [Compound P8] | 100 | 0 | 80 | 0 | 70 | 100 | 50 | 0 | 0 | 20
CCc1sc(-c2ccc3ccccc3c2)nc1C1C(=O)[C@@H]2CC[C@@H](C2)C1=O (some centres unmarked) [Compound T99] | 100 | 100 | 100 | 0 | 100 | 60 | 60 | 30 | 20 | 50
O=C1C(c2nc(-c3ccc(Cl)cc3)sc2Br)C(=O)[C@H]2CC[C@@H]1C2 (some centres unmarked) [Compound T49] | 100 | 100 | 90 | 0 | 90 | 100 | 100 | 100 | 0 | 100
CC(=O)OC1=C(c2nc(-c3ccc(Br)cn3)sc2C)C(=O)[C@H]2CC[C@@H]1C2 [Compound P6] | 100 | 100 | 80 | 0 | 90 | 100 | 20 | 0 | 0 | 20
Cc1sc(-c2ccc(C(F)(F)F)cc2)nc1C1C(=O)[C@@H]2CC[C@@H](C2)C1=O (some centres unmarked) [Compound T59] | 100 | 100 | 80 | 0 | 100 | 100 | 90 | 70 | 0 | 80
Cc1sc(-c2ccc([S+](C)[O-])cc2)nc1C1C(=O)[C@@H]2CC[C@@H](C2)C1=O (some centres unmarked) [Compound T82] | 100 | 100 | 0 | 30 | 20 | 80 | 40 | 0 | 0 | 0
CC(=O)OC1=C(c2nc(-c3ccc(Cl)cc3)ncc2C)C(=O)[C@@H]2C[C@H]1C2(C)C [Compound P19] | 90 | 90 | 0 | 0 | 20 | 90 | 20 | 0 | 0 | 10
CSc1ccc(-c2nc(C3C(=O)[C@@H]4CC[C@@H](C4)C3=O)c(C)s2)cc1 (some centres unmarked) [Compound T81] | 100 | 100 | 50 | 0 | 50 | 100 | 100 | 40 | 0 | 50
Cc1sc(-c2ccc(Cl)c(C#N)c2)nc1C1C(=O)C2CCC(C2)C1=O (centres unmarked) [Compound T74] | 90 | 70 | 0 | 0 | 50 | 40 | 20 | 0 | 100 | 30
CCc1sc(-c2ccc(Br)cn2)nc1C1C(=O)[C@@H]2CC[C@@H](C2)C1=O (some centres unmarked) [Compound T39] | 100 | 100 | 100 | 0 | 100 | 90 | 100 | 0 | 0 | 90
CCc1sc(-c2ccccc2)nc1C1C(=O)[C@@H]2CC[C@@H](C2)C1=O (some centres unmarked) [Compound T93] | 70 | 70 | 0 | 0 | 30 | 20 | 40 | 0 | 0 | 20
